Read-outs that look alike come from different tables or passages of the source.
What was measured:
[1] = molecular target: T1, HSA (Homo sapiens, UniProt P02768); parameters: purchased Sigma Aldrich (St. Louis, Mo.); details: cited from earlier work; for Kd: binding to HSA, read-out: Average Literature KD; for reported HSA binding activity: literature report
[2] = molecular target: T1, HSA; assay: Drug screening: HSA binding constants from DSC thermograms; details: for Measured HSA binding (cell spanning the measured KD columns; same in text): result in words
Experimental: Ligand solubilization: Stock solutions of aqueous insoluble ligands in organic solvents were pipetted into microcentrifuge tubes to yield a desired amount of drug for a 1 mL solution. The microcentrifuge tubes were placed into a vacuum concentrator (Savant SpeedVac Model SC100), and the organic solvents were evaporated, resulting in solid drug in the tube. To each tube, HSA is added at a predetermined concentration with standard buffer to provide a 1 mL working solution.
In total binding of 28 drug compounds to HSA was examined by obtaining thermograms.

[3] = molecular target: T2, human serum albumin (HSA) (Homo sapiens, UniProt P02768); assay: DSC thermograms of HSA with ligand (single-ligand titration); type: binding
T2 construct: purchased Sigma Aldrich (St. Louis, Mo.)
Experimental: Chemicals and reagents: Plasma and highly pure plasma proteins are sourced from commercial suppliers. Standard reagents are sourced from commercial suppliers. Samples are prepared in standard phosphate-buffered saline (PBS) buffer. In some examples, human plasma and serum albumin were purchased from Sigma Aldrich (St. Louis, Mo.) and received as lyophilized powder. Plasma was product number: P9523, lot number: SLBT0202. […] In vivo, the standard state of HSA is most certainly bound to some extent by fatty acids. Plasma and HSA stock solutions were prepared by re-suspending the appropriate amount of powder in buffer. Samples were prepared by diluting stock solutions to a final concentration of 1.5-2.0 mg/mL.
Protein concentration was approximately 2 mg/ml.
In a DSC melting experiment, the supplemental power supplied to the sample cell (in μW) necessary to keep the sample temperature equal to the reference temperature is continually monitored. […] Supplemental power is directly related to the molar heat capacity at constant pressure, ΔCp. Curves of ΔCp versus T provide an evaluation of the thermodynamic enthalpy. To enable direct comparisons in some cases, power (μW) versus T plots (instead of ΔCp versus T curves) were used for the following reason.
Analysis of DSC data was performed using the Nanoanalyze software package, version 3.7.5, provided by T.A. Instruments. […]
From the thermograms, semi-quantitative evaluations of the thermodynamic parameters ΔHcal, ΔScal and ΔGcal(37° C.) were obtained at each ligand concentration.
These curves were constructed from titrations of DM1 with HSA. The Tm and ΔGcal(37° C.) were evaluated. The values were normalized against standard HSA and plotted versus ligand concentration to provide the dose curves in FIG. 20A (Tm) and FIG. 20B (ΔGcal(37° C.)).
Natural HSA samples were prepared at pH 6.0 and pH 8.0 and examined by DSC. […] From DSC melting curves thermodynamic parameters for HSA/ligand mixtures were evaluated.

[4] = system: human plasma; assay: DSC thermograms of plasma with ligand; type: binding
[5] = Average Measured KD, binding to HSA; single value or value marked 1)
[6] = Measured KD From TM, binding to HSA; single value or value marked 1)
[7] = Measured KD from ΔG^037, binding to HSA; single value or value marked 1)
[8] = read-out: Average Measured KD; binding to HSA; single value or value marked 1)
[9] = read-out: Measured KD From TM; binding to HSA; single value or value marked 1)
[10] = read-out: Measured KD from ΔG^037; binding to HSA; single value or value marked 1)

T1 sequence (P02768 25-609): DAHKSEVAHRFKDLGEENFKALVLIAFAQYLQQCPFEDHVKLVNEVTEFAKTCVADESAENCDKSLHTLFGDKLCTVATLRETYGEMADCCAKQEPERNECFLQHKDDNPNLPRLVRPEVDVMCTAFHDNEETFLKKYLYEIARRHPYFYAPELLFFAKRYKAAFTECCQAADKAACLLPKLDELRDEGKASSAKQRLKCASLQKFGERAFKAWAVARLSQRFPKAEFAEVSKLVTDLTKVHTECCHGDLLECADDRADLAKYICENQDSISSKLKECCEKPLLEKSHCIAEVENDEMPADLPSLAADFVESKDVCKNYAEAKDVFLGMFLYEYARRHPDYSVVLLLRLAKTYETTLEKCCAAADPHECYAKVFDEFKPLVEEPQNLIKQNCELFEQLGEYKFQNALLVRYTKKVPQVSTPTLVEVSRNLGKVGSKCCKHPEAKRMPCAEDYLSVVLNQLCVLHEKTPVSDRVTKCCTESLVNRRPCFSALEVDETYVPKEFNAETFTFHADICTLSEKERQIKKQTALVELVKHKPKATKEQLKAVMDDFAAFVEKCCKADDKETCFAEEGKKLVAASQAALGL
T2 sequence (P02768 25-609): as above

Row | Compound | Kd [1] [µM] | Kd [2, 5] [µM] | Kd [2, 6] [µM] | Kd [2, 7] [µM] | further results
1 | O=C([O-])CN(CCN(CC(=O)[O-])CC(COP(=O)(O)OC1CCC(c2ccccc2)(c2ccccc2)CC1)N(CC(=O)[O-])CC(=O)[O-])CC(=O)O.[Gd+3].[Na+] (stereo not drawn) [Ablavar (AB)] | 60.4 |  |  |  | 
2 | C=CC1=C(C)/C(=C/c2[nH]c(Cc3[nH]c(/C=C4\NC(=O)C(C)=C4C=C)c(C)c3CCC(=O)O)c(CCC(=O)O)c2C)NC1=O [Bilirubin (BIL), Bilirubin] | 0.074 | 0.33 | 0.41 | 0.25 | 
3 | CC(NC(C)(C)C)C(=O)c1cccc(Cl)c1 (stereo not drawn) [Bupropion (BPR), Bupropion] | 172 | 0.25 | 0.28 | 0.21 | Kd ([2]; Average Measured KD, binding to HSA; second value marked 2)): 19.5 µM; Kd ([2]; Measured KD From TM, binding to HSA; second value marked 2)): 28.8 µM; Kd ([2]; Measured KD from ΔG^037, binding to HSA; second value marked 2)): 10.2 µM
4 | CCN(CC)CCCC(C)Nc1ccnc2cc(Cl)ccc12 (stereo not drawn) [CQ, Chloroquine] |  |  |  |  | Implied number of sites [3]: 1; effect on fibrinogen melting transition peak (52° C.) of the plasma thermogram [4]: significant perturbation
5 | C[C@H](CS)C(=O)N1CCC[C@H]1C(=O)O [Captopril (CAP), Captopril] | 192 | 3.75 | 5.44 | 2.05 | 
6 | O=C([O-])CN1CCN(CC(=O)[O-])CCN(CC(=O)O)CCN(CC(=O)[O-])CC1.[Gd+3] [Dotarem (DOTA), gadoteric acid] |  |  |  |  | Measured HSA binding (cell spanning the measured KD columns; same in text) [2]: No Binding Detected; Measured HSA binding (cell spanning the measured KD columns; same in text) ([2]; listed as Dotarem): no binding was observed; reported HSA binding activity [1]: not have any measurable HSA binding activity
7 | O=C1OC2(c3ccc(O)cc3Oc3cc(O)ccc32)c2ccccc21 [Fluorescein (FSC), Fluorescein] | 212 | 68 | 79.8 | 56.2 | 
8 | COCCc1ccc(OCC(O)CNC(C)C)cc1 (stereo not drawn) [Metoprolol (MEP), Metoprolol] | 74.1 | 11.1 | 3.04 | 19.2 | 
9 | CNC[C@H](O)[C@@H](O)[C@H](O)[C@H](O)CO.CNC[C@H](O)[C@@H](O)[C@H](O)[C@H](O)CO.O=C([O-])CN(CCN(CC(=O)[O-])CC(=O)O)CCN(CC(=O)O)C(COCc1ccccc1)C(=O)[O-].[Gd+3] (stereo not drawn) [Multihance (MH)] | 1950 |  |  |  | Kd [2, 8]: 1340 µM; Kd [2, 9]: 1380 µM; Kd [2, 10]: 1290 µM
10 | CC(O)CN1CCN(CC(=O)[O-])CCN(CC(=O)[O-])CCN(CC(=O)[O-])CC1.[Gd+3] (stereo not drawn) [Prohance (PRO), gadoteridol] |  |  |  |  | reported HSA binding activity [1]: not display HSA binding activity
11 | C[CH2][Hg][S]c1ccccc1C(=O)[O-].[Na+] [Thimerosal (TMS), Thimerosal] | 339 |  |  |  | 
12 | CCCCCc1cc(O)c2c(c1)OC(C)(C)[C@@H]1CCC(C)=C[C@@H]21 [Δ9-tetrahydrocannabinol (THC), Δ9-tetrahydrocannabinol] | ≤ 0.1 |  |  |  | Kd [2, 8]: 0.035 µM; Kd [2, 9]: 0.025 µM; Kd [2, 10]: 0.048 µM
